Test results as given in PMC11310081, “Deep-learning-enabled antibiotic discovery through molecular de-extinction” (Nature Biomedical Engineering, 2024).
Converted amounts (≈) assume the structure as drawn. “Also recorded” adds a separate entry of the source. Peptide text beside a SMILES is read from it.

Assays:
[1] = tested on: HEK293T cells; conditions: 24 h
Outline: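 5,000 cells/well seeded a day ahead in DMEM with 10% FBS, then treated with peptides; viability by MTT (0.5 mg/ml, 4 h, 37 °C), formazan in acidic isopropanol read at 570 nm. Concentration causing 50% lysis from non-linear regression; three biological replicates, two technical each.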

[2] = tested on: A. baumannii ATCC 19606; assay: Neutropenic thigh infection mouse model; type: in vivo, CD-1 mice; conditions: for bacterial count, thigh infection (Panel 6d): neutropenic CD-1 mice
Method: Six-week-old female CD-1 mice from Charles River (stock number 18679700-022) were rendered neutropenic by two doses of cyclophosphamide (150 mg kg^−1) applied intraperitoneally with an interval of 72 h. One day after the last dose of cyclophosphamide, the mice were injected intramuscularly in their right thigh with a bacterial load of 10^6 c.f.u. ml^−1 of A. baumannii ATCC 19606 cells. The bacteria had been grown in LB broth, washed twice with PBS (pH 7.4), and resuspended to the desired concentration. Two hours after bacterial injection, peptides resuspended in water were administered intraperitoneally, and the untreated mice were inoculated with the same volume of deionized water. Before each injection, mice were anaesthetized with isoflurane and monitored for respiratory rate and pedal reflexes. Next, we monitored the establishment of the infection and euthanized the mice. The infected area was excised 2 days and 4 days post infection, homogenized using a bead beater for 20 min (25 Hz), and then serially diluted tenfold for quantification of colony-forming units in MacConkey agar plates. The experiments were performed with six mice per group. All experiments were performed blindly, and no animal subjects were excluded from the analysis. The thigh infection mouse model was approved by the University Laboratory Animal Resources from the University of Pennsylvania (protocol 807055). Statistical significance was determined using one-way ANOVA followed by Dunnett’s test in log10-transformed data to mitigate the effect of outliers; P values are presented for each group, with all groups being compared to the untreated control group.

[3] = tested on: 11 clinically relevant bacterial pathogens; type: cell-based; conditions: for Active or Inactive: Supplementary Dataset 2, against the 11 pathogens tested; for MIC (lowest MIC value in the antimicrobial activity assays): Supplementary Table 17, lowest MIC among the strains tested
Outline: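 Log-phase cells (OD600 0.3–0.5), 37 °C; peptides 1–64 μmol l^−1 in broth microdilution; OD600 read-out; n = 3 biological replicates.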

[4] = A. baumannii ATCC 19606, day 2, replicate 1
[5] = A. baumannii ATCC 19606, day 2, replicate 2
[6] = A. baumannii ATCC 19606, day 2, replicate 3
[7] = A. baumannii ATCC 19606, day 2, replicate 4
[8] = A. baumannii ATCC 19606, day 2, replicate 5
[9] = A. baumannii ATCC 19606, day 2, replicate 6
[10] = A. baumannii ATCC 19606, day 4, replicate 1
[11] = A. baumannii ATCC 19606, day 4, replicate 2
[12] = A. baumannii ATCC 19606, day 4, replicate 3
[13] = A. baumannii ATCC 19606, day 4, replicate 4
[14] = A. baumannii ATCC 19606, day 4, replicate 5
[15] = A. baumannii ATCC 19606, day 4, replicate 6

Row | SMILES | CC50 [1] [µM] | bacterial count, thigh infection (Panel 6d) [2, 4] | bacterial count, thigh infection (Panel 6d) [2, 5] | bacterial count, thigh infection (Panel 6d) [2, 6] | bacterial count, thigh infection (Panel 6d) [2, 7] | bacterial count, thigh infection (Panel 6d) [2, 8] | bacterial count, thigh infection (Panel 6d) [2, 9] | bacterial count, thigh infection (Panel 6d) [2, 10] | bacterial count, thigh infection (Panel 6d) [2, 11] | bacterial count, thigh infection (Panel 6d) [2, 12] | bacterial count, thigh infection (Panel 6d) [2, 13] | bacterial count, thigh infection (Panel 6d) [2, 14] | bacterial count, thigh infection (Panel 6d) [2, 15] | Active or Inactive [3] | MIC (lowest MIC value in the antimicrobial activity assays) [3] [µM] | TI (therapeutic index) [1] | Reduction in bacterial counts, 2 days post treatment ([2]; neutropenic thigh infection, single intraperitoneal dose, n = 6)
1 | CC[C@H](C)[C@H](N)C(=O)N[C@@H](Cc1ccccc1)C(=O)N[C@@H](CC(C)C)C(=O)N[C@@H](Cc1c[nH]cn1)C(=O)N[C@@H](CC(C)C)C(=O)N[C@@H](CCCCN)C(=O)N[C@H](C(=O)N[C@@H](CC(C)C)C(=O)N[C@@H](CCCCN)C(=O)N[C@H](C(=O)N[C@H](C(=O)N[C@@H](CCCNC(=N)N)C(=O)N[C@@H](CC(C)C)C(=O)N[C@@H](CC(C)C)C(=O)O)[C@@H](C)CC)[C@@H](C)CC)[C@@H](C)CC [Elephasin-2] (H-IFLHLKILKIIRLL-OH; N-terminus and C-terminus assumed) | > 128 | 2e+007 | 4e+007 | 4e+007 | 4e+007 | 8e+007 | 1e+008 | 1400000 | 1000000 | 4000000 | 1000000 | 800000 | 4000000 | Active | 1 (≈ 1.73 µg/mL) |  | 
2 | CC[C@H](C)[C@H](NC(=O)[C@H](CO)NC(=O)[C@H](CCCNC(=N)N)NC(=O)[C@H](C)NC(=O)[C@H](Cc1c[nH]cn1)NC(=O)[C@H](CC(C)C)NC(=O)[C@H](CS)NC(=O)[C@H](C)NC(=O)[C@@H](N)CCCNC(=N)N)C(=O)N[C@@H](C)C(=O)N[C@@H](CCCNC(=N)N)C(=O)N[C@@H](CC(C)C)C(=O)N[C@@H](Cc1c[nH]cn1)C(=O)N[C@@H](CCCCN)C(=O)N[C@@H](CCCNC(=N)N)C(=O)N[C@@H](Cc1c[nH]c2ccccc12)C(=O)N[C@@H](CCCNC(=N)N)C(=O)N1CCC[C@H]1C(=O)N[C@H](C(=O)N[C@@H](Cc1c[nH]cn1)C(=O)N[C@@H](CCC(N)=O)C(=O)NCC(=O)N[C@@H](CC(C)C)C(=O)NCC(=O)N[C@@H](CC(C)C)C(=O)N[C@@H](CCCCN)C(=O)O)C(C)C [Mammuthusin-2] (H-RACLHARSIARLHKRWRPVHQGLGLK-OH; N-terminus and C-terminus assumed) | > 128 | 800000 | 2e+007 | 4000000 | 2000000 | 1e+007 | 4000000 | 800000 | 600000 | 6000000 | 6000000 | 2000000 | 4000000 | Active | 32 (≈ 97.9 µg/mL) | > 4 | 
3 | CC[C@H](C)[C@H](NC(=O)[C@@H](N)CC(C)C)C(=O)N[C@H](C(=O)N[C@@H](CS)C(=O)N[C@@H](Cc1ccccc1)C(=O)N[C@@H](Cc1ccccc1)C(=O)N[C@@H](CCCNC(=N)N)C(=O)N[C@@H](CCC(N)=O)C(=O)N[C@@H](CC(C)C)C(=O)N[C@@H](CCCCN)C(=O)N[C@@H](Cc1ccccc1)C(=O)N[C@@H](Cc1c[nH]cn1)C(=O)N[C@@H](Cc1ccccc1)C(=O)O)C(C)C [Megalocerin-1] (H-LIVCFFRQLKFHF-OH; N-terminus and C-terminus assumed) | > 128 | 1.2e+008 | 2.0e+007 | 2.2e+008 | 2.0e+008 | 1.2e+008 | 2.8e+008 | 6.0e+008 | 1.0e+009 | 4.0e+007 | 6.0e+007 | 4.0e+007 | 2.0e+007 | Active | 8 (≈ 13.6 µg/mL) | > 16 | 
4 | CC(C)C[C@H](NC(=O)CNC(=O)[C@H](CCCNC(=N)N)NC(=O)[C@H](CCCCN)NC(=O)[C@H](CCCNC(=N)N)NC(=O)[C@@H](N)CCCCN)C(=O)N[C@@H](CCCCN)C(=O)N[C@@H](CC(C)C)C(=O)N[C@@H](C)C(=O)N[C@H](C(=O)N[C@@H](C)C(=O)N[C@@H](CC(C)C)C(=O)N[C@@H](CO)C(=O)N[C@@H](CC(C)C)C(=O)N[C@@H](CC(N)=O)C(=O)N[C@@H](CC(N)=O)C(=O)N[C@@H](CCCCN)C(=O)N[C@@H](Cc1ccccc1)C(=O)O)[C@@H](C)O [Mylodonin-2] (H-KRKRGLKLATALSLNNKF-OH; N-terminus and C-terminus assumed) | > 128 | 1200000 | 2400000 | 1000000 | 1800000 | 200000 | 400000 | 1.2e+007 | 1.2e+008 | 2.0e+007 | 2.0e+007 | 4.0e+007 | 2.0e+007 | Active |  |  | as much as polymyxin B; also recorded: most potent activity, which was comparable to that of the positive control antibiotic, polymyxin B
